Series [1] relates to hypoxic pulmonary vasoconstriction (HPV) in mice. Description: Redistribution of pulmonary blood flow (QLPA/QPA) after left mainstem bronchus occlusion (LMBO), murine HPV model. It counts as in vivo, mouse. The procedure:
Group 3: endotoxin-treated+L-NIL. SV129/B6F1 wild-type mice (n=5) were injected intraperitoneally with 10 mg/kg E. coli 011B4 endotoxin dissolved in 0.2 mL saline. Three hours after the endotoxin challenge, mice were treated with L-NIL 5 mg/kg intraperitoneally. Studies were performed 22 hours after the endotoxin challenge. In additional SV129/B6F1 mice with (n=5) and without (n=4) a prior challenge of endotoxin (22 hours earlier), the acute response to an intravenous bolus of 5 mg/kg L-NIL administered during LMBO, was studied.
Group 4: prolonged exposure to 4 or 40 ppm NO. Saline-treated SV129 wild-type mice (n=5) and NOS2-deficient mice (n=5) breathed 40 ppm NO in air for 22 hours and were studied 1 hour after discontinuation of NO inhalation. SV129 wild-type mice (n=5) and NOS2-deficient mice (n=5) breathed 40 ppm NO in air for 22 hours after challenge with 10 mg/kg endotoxin intraperitoneally and were studied 1 hour after discontinuation of NO inhalation. Additional NOS2-deficient mice (n=4) breathed 4 ppm of NO in air for 22 hours after challenge with 10 mg/kg endotoxin intraperitoneally and were studied 1 hour after discontinuation of NO inhalation.
Experimental preparation. Mice were anesthetized by intraperitoneal injection of ketamine (0.1 mg/g body weight [bw]). Tracheostomy and arterial catheterization were performed as described previously (Steudel et al., 1997, Circ. Res. 81:34-41). A custom-made endotracheal tube (22G Angiocath; Becton Dickinson Healthcare Systems, Sandy, Utah, USA), combined with a 2 French Fogarty arterial embolization catheter (Baxter Healthcare Corp., Irvine, Calif., USA) was inserted into the trachea, with the balloon tip of the Fogarty catheter initially remaining in the trachea. Volume-controlled ventilation was initiated at a respiratory rate of 110-120 breaths per minute, at FiO2 1.0, a peak inspiratory pressure of 13 cm H2O, and a positive end-expiratory pressure level of 2-3 cm H2O. A right parasternal thoracotomy was performed, and a small-vessel ultrasonic flow probe (1RB; Transonic Instruments, Ithaca, N.Y.) was placed around the right pulmonary artery and fixed in position using a micromanipulator (X-tra Hand; TechniTool, Plymouth, Pa.). A 4-0 silk suture was positioned around the left main pulmonary artery to allow transient vascular occlusion. A pulmonary artery catheter (PE10) was inserted into the main pulmonary artery by direct puncture. In other experiments, a lower thoracic aortic flow probe was placed as reported previously (Steudel et al., supra).
Blood flow and pressure measurements. Mean systemic arterial pressure (PSA), mean pulmonary artery pressure (PPA), and in some studies PLA, were continuously monitored using biomedical amplifiers (Hewlett Packard 8805C, Palo Alto, Calif.; Siemens Sirecust 960, Danvers, Mass.). Mean lower thoracic aortic flow (QLTAF) and right pulmonary artery flow (QRPA) were measured with small vessel flow probes connected to a flowmeter (T106; Transonic Instruments). In some experiments, left ventricular end-diastolic pressure was measured with a 1.4 Fr. Millar catheter. The catheter was advanced through the right carotid artery into the left ventricle. […] All monitoring equipment was calibrated before each experiment.
Differential measurement of left and right pulmonary artery flow. To assess the contribution of QRPA and left pulmonary artery flow (QLPA) to total pulmonary artery flow (QPA), transient occlusion (90 seconds) of the left pulmonary artery (QLPA) was performed. QRPA during acute left pulmonary artery occlusion was considered to be QPA (i.e., cardiac output) and correlated closely (r2=0.88; y=0.95x+0.38; n=9) with QLTAF. QLPA was calculated as the difference between QRPA during left pulmonary artery occlusion (QPA) and QRPA with a patent left pulmonary artery (QLPA=QPA−QRPA). Absolute values of respective flows were recorded, and the fractional distribution of flow to the right and left lungs (QRPA/QPA and QLPA/QPA) was calculated. […]

Series [2] is described as follows: Wet-to-dry lung weight ratio after isolated lung perfusion (Example 1). It counts as in vivo, mouse. The conditions noted are these: exposure to NO inhalation for 16 h. As for the experimental part:
Wet-to-Dry Lung Weight Ratio At the end of each experiment, both lungs, excluding hilar structures, were excised and weighed (wet weight). Thereafter, the lungs were dried in a microwave oven for 60 min, as previously described (Holzmann et al., supra), and then reweighed (dry weight). Wet-to-dry lung weight ratios were calculated by dividing the wet weight by the dry weight.

Each structure is given as a SMILES string.

1 compound from US6935334B2, “Enhancing therapeutic effectiveness of nitric oxide inhalation” (The General Hospital Corporation, priority 2000, dated 2005) can be followed below.

`[N]=O` [NO, Nitric oxide]: the “reduction of QLPA/QPA after LMBO” value in series [1] (endotoxin-treated NOS2-deficient mice after prolonged inhalation of 40 ppm NO for 22 hours) worked out at 20±7%; in series [1] (endotoxin-treated NOS2-deficient mice breathing 4 ppm NO for 22 hours), 62±2%; in series [1] (endotoxin-treated wild-type mice breathing 40 ppm NO for 22 hours), 19±10%; in series [1] (saline-treated NOS2-deficient mice after breathing 40 ppm NO for 22 hours, measured 1 hour later) it was 50±11%; in series [1] (saline-treated wild-type mice after breathing 40 ppm NO for 22 hours, measured 1 hour later), 51±10%. Also, the “wet-to-dry lung weight ratio” value in series [2] (lipopolysaccharide-pretreated NOS2-deficient mice) is listed as 5.1±0.2; in series [2] (lipopolysaccharide-pretreated wild-type mice) it was 4.9±0.1; in series [2] (untreated NOS2-deficient mice) it was 4.8±0.1; in series [2] (untreated wild-type mice) it was 4.5±0.3.
